Values of other authors as cited in patent US20070134244A1, “Combination treatment for pathologic ocular angiogenesis” (Alcon, Inc., priority 2005, published 2007).

System: xenotransplant models of colon cancer
Conditions: xenotransplant models of colon cancer in nude (athymic) mice; Presta et al. 1997

For bevacizumab, which metastatic disease progression is on record?
Its metastatic disease progression is “inhibition of metastatic disease progression”.

What about the microvascular growth of the same substance?
Its microvascular growth is “reduction of microvascular growth”.
